Experimental data reported in patent US4358441A, “Nicotinic derivatives of glucosamine and related pharmaceutical compositions” (Laboratorio Guidotti & C. S.p.A., priority 1980, dated 1982).

Tests used:
[1] = tested on: plasma levels of FFA; assay: Effect of oral administration on plasma levels of FFA in the empty rat; conditions: for Percent variations of plasma FFA with respect to the controls: empty rat
[2] = in vivo; conditions: rat
[3] = tested on: plasma levels of free glycerol; assay: Effect of oral administration on plasma levels of free glycerol in the empty rat; format: in vivo, rat (COBS CD (SD) BR male); conditions: for Percent variations of plasma free glycerol with respect to the controls: empty rat
[4] = tested on: plasma levels of cholesterol; assay: Effect of oral administration on plasma levels of cholesterol in the empty rat; format: in vivo, rat (COBS CD (SD) BR male); conditions: for Percent variations of plasma cholesterol with respect to the controls: 100 mg/kg oral referred to nicotinic acid, empty rat
[5] = tested on: rats of both sexes; assay: Acute toxicity (LD50) in rats of both sexes, oral and intraperitoneal route; conditions: rat
[6] = tested on: plasma levels of triglycerides; assay: Effect of oral administration on plasma levels of triglycerides in the empty rat; format: in vivo, rat (COBS CD (SD) BR male); conditions: for Percent variations of plasma triglycerides with respect to the controls: empty rat; for Time within which the effect on triglycerides disappears: rat
[7] = 30 mg/kg oral referred to nicotinic acid, 1 h
[8] = 30 mg/kg oral referred to nicotinic acid, 2 h
[9] = 30 mg/kg oral referred to nicotinic acid, 4 h
[10] = 30 mg/kg oral referred to nicotinic acid, 6 h
[11] = 100 mg/kg oral referred to nicotinic acid, 2 h
[12] = 100 mg/kg oral referred to nicotinic acid, 4 h
[13] = 100 mg/kg oral referred to nicotinic acid, 6 h
[14] = 100 mg/kg oral referred to nicotinic acid, 8 h
[15] = 100 mg/kg oral referred to nicotinic acid, 10 h
[16] = 100 mg/kg oral referred to nicotinic acid, 16 h
[17] = 100 mg/kg oral referred to nicotinic acid, 24 h
[18] = 30 mg/kg oral referred to nicotinic acid, 8 h
[19] = 30 mg/kg oral referred to nicotinic acid, 10 h
[20] = 30 mg/kg oral referred to nicotinic acid, 12 h
[21] = 30 mg/kg oral referred to nicotinic acid, 16 h
[22] = 100 mg/kg oral referred to nicotinic acid, 32 h

Compound: O=C(N[C@H]1C(OC(=O)c2cccnc2)O[C@H](COC(=O)c2cccnc2)[C@@H](OC(=O)c2cccnc2)[C@@H]1OC(=O)c1cccnc1)c1cccnc1 (some centres unmarked) [GLUN, N-nicotinoyl-glucosamine tetranicotinate]
- Percent variations of plasma FFA with respect to the controls [1, 7]: -33%
- Percent variations of plasma FFA with respect to the controls [1, 8]: -67%
- Percent variations of plasma FFA with respect to the controls [1, 9]: -3%
- Percent variations of plasma FFA with respect to the controls [1, 10]: -16%
- Depression of plasma FFA ([1]; 30 mg/kg oral, rat): still active in the second hour
- Percent variations of plasma FFA with respect to the controls [1, 11]: -74%
- Percent variations of plasma FFA with respect to the controls [1, 12]: -41%
- Percent variations of plasma FFA with respect to the controls [1, 13]: -28%
- Percent variations of plasma FFA with respect to the controls [1, 14]: -43%
- Percent variations of plasma FFA with respect to the controls [1, 15]: -40%
- Percent variations of plasma FFA with respect to the controls [1, 16]: -7%
- Percent variations of plasma FFA with respect to the controls [1, 17]: -2%
- Time within which the effect on FFA disappears ([1]; 100 mg/kg oral, rat): ≤ 16 h
- LD50 ([2]; ip, female): 6750 mg/kg
- LD50 ([2]; ip, male): 6650 mg/kg
- LD50 ([2]; po, female, os): > 8000 mg/kg
- LD50 ([2]; po, male, os): > 8000 mg/kg
- Percent variations of plasma free glycerol with respect to the controls [3, 7]: -27%
- Percent variations of plasma free glycerol with respect to the controls [3, 8]: -63%
- Percent variations of plasma free glycerol with respect to the controls [3, 9]: -7%
- Percent variations of plasma free glycerol with respect to the controls [3, 10]: -17%
- Percent variations of plasma free glycerol with respect to the controls [3, 18]: -25%
- Percent variations of plasma free glycerol with respect to the controls [3, 19]: -4%
- Percent variations of plasma free glycerol with respect to the controls [3, 20]: -5%
- Percent variations of plasma free glycerol with respect to the controls [3, 21]: +5%
- Activity on free glycerol ([3]; 30 mg/kg oral, rat): active at the 2nd hour
- Percent variations of plasma free glycerol with respect to the controls [3, 11]: -81%
- Percent variations of plasma free glycerol with respect to the controls [3, 12]: -47%
- Percent variations of plasma free glycerol with respect to the controls [3, 13]: -24%
- Percent variations of plasma free glycerol with respect to the controls [3, 14]: -32%
- Percent variations of plasma free glycerol with respect to the controls [3, 15]: -41%
- Percent variations of plasma free glycerol with respect to the controls [3, 16]: +3%
- Percent variations of plasma free glycerol with respect to the controls [3, 17]: 0%
- Percent variations of plasma free glycerol with respect to the controls [3, 22]: +16%
- Time within which the effect on free glycerol disappears ([3]; 100 mg/kg oral, rat): within the sixteenth hour
- Percent variations of plasma cholesterol with respect to the controls ([4]; 4 h): +9%
- Percent variations of plasma cholesterol with respect to the controls ([4]; 6 h): -4%
- Percent variations of plasma cholesterol with respect to the controls ([4]; 8 h): -13%
- Percent variations of plasma cholesterol with respect to the controls ([4]; 10 h): -29%
- Percent variations of plasma cholesterol with respect to the controls ([4]; 16 h): -53%
- Percent variations of plasma cholesterol with respect to the controls ([4]; 24 h): -37%
- Percent variations of plasma cholesterol with respect to the controls ([4]; 32 h): -42%
- Percent variations of plasma cholesterol with respect to the controls ([4]; 48 h): -29%
- Cholesterol lowering effect with respect to that of the reference standards ([4]; 100 mg/kg oral, rat): constantly more relevant
- Lowering of cholesterolemy ([4]; 100 mg/kg oral, rat): depresses the cholesterolemy from the eighth to the fortyeighth hour
- Acute toxicity lower than that of nicotinic acid ([5]; intraperitoneal route): 20 times
- Acute toxicity lower than that of nicotinic acid ([5]; oral route): 2 times
- Percent variations of plasma triglycerides with respect to the controls [6, 7]: -2%
- Percent variations of plasma triglycerides with respect to the controls [6, 8]: -45%
- Percent variations of plasma triglycerides with respect to the controls [6, 9]: -44%
- Percent variations of plasma triglycerides with respect to the controls [6, 10]: -41%
- Percent variations of plasma triglycerides with respect to the controls [6, 18]: -36%
- Percent variations of plasma triglycerides with respect to the controls [6, 19]: -62%
- Percent variations of plasma triglycerides with respect to the controls [6, 20]: -31%
- Percent variations of plasma triglycerides with respect to the controls [6, 21]: +31%
- Time within which the effect on triglycerides disappears ([6]; 30 mg/kg oral): ≤ 16 h
- Percent variations of plasma triglycerides with respect to the controls [6, 11]: -52%
- Percent variations of plasma triglycerides with respect to the controls [6, 12]: -65%
- Percent variations of plasma triglycerides with respect to the controls [6, 13]: -72%
- Percent variations of plasma triglycerides with respect to the controls [6, 14]: -75%
- Percent variations of plasma triglycerides with respect to the controls [6, 15]: -65%
- Percent variations of plasma triglycerides with respect to the controls [6, 16]: -67%
- Percent variations of plasma triglycerides with respect to the controls [6, 17]: 3%
- Percent variations of plasma triglycerides with respect to the controls [6, 22]: +13%
- Time within which the effect on triglycerides disappears ([6]; 100 mg/kg oral): within the twenty fourth hour
